Series [1] deals with primary neuronal cultures from rat cerebral cortex. As to the kind of experiment: Neuroprotection (MTT cell viability) in primary neuronal cultures exposed to oxygen-glucose deprivation (OGD). Conditions: Rattus norvegicus, 24 h recovery after 4 h OGD, R24 h = 0%, control = 100%. It is filed as cell-based. On the procedure: Primary neuronal cultures. Primary neuronal cultures from rat cerebral cortex were prepared as previously described.^54 All procedures associated with animal experiments were approved by the Ethics Committee of the Hospital Ramón y Cajal, Madrid (Spain). Cell suspensions from cerebral cortex were prepared from 16- to 17-day-old Sprague-Dawley rat embryos. Living cells in cell suspension were counted by trypan blue exclusion method. Cells were seeded on plastic multidishes precoated with 0.05 mg/mL poly-D-lysine at a density of 2.5×10^5 cells/cm^2 and were kept at 37° C. in a 6.5% CO2 atmosphere in high glucose Dulbecco's medium supplemented with 15% heat-inactivated (56° C. for 30 min) foetal calf serum. After 24 h, cultured cells were […] to induce experimental ischemia.^23 Cultured cells were washed and placed in glucose-free Dulbecco's medium (bubbled with 95% N2/5% CO2 for 30 min), and maintained in a humidified hypoxia chamber equipped with an oxygen and carbon dioxide control unit (Biospherix) at 6.5% CO2 and <0.1% O2 in N2 at 37° C. Cells were exposed to OGD for a period of 4 h (OGD 4 h). At the end of the OGD period, culture medium was replaced with oxygenated serum-free medium, and cells were placed and maintained in the normoxic incubator for 24 h to recovery (R24 h). In the neuroprotection experiments, the compounds were added at the onset of recovery period. Control cultures in Dulbecco's medium containing glucose were kept in the normoxic incubator for the same period of time as the OGD, and then medium (Dulbecco's/Ham's F12, 1:1 [vol/vol], 5 mg/mL glucose, 2 mM L-glutamine, and 1 mM sodium pyruvate, and supplemented with 100 μg/mL transferrin, 100 μM putrescine, 20 nM progesterone, 30 nM sodium selenite and 5 μg/mL insulin). Here, 6-7 day old cultured neurons were used in the experiments, and contained 90% β-III-tubulin-positive mature neurons, as described previously.^55
Exposure of cell cultures to oxygen-glucose deprivation and treatments. Primary neuronal cultures were exposed to […]. Control experiments included the same amounts of vehicle (final concentration<0.5% ethanol). Nitrone 2 was used as reference compound for neuroprotection. The experimental procedures were blindly performed, assigning a random order to each assayed nitrone. Nitrones were analyzed independently four-eight times with different batch of cultures and each experiment was run in quadruplicate.
Cell viability assay. Cell viability was evaluated by quantification of living, metabolically active cells, as determined by a colorimetric assay using the photometric reduction of 3-(4,5-dimethylthiazol-2-yl)-2,5-diphenyl tetrazolium bromide (MTT) (Roche) to a blue formazan product. The assay of living, metabolically active cells was performed by incubating with 0.2 mg/mL MTT in the culture medium for 1.5 h in an incubator at 37° C. in a 6.5% CO2 atm. After the incubation period, cells were lysed with an equal volume of 10 mM HCl and 10% SDS overnight. Values were quantified by absorbance (test 595 nm, reference 690 nm). Decreased MTT activity denotes impairment of mitochondrial function and is considered to be an index of cell damage. Primary neuronal cultures were collected at times indicated for MTT determination.
Neuroprotection of compounds was evaluated by a cell viability assay. The neuroprotective effect of the compounds 5-32 was evaluated on primary neuronal cultures from cerebral cortex subjected to oxygen-glucose deprivation (OGD) to induce experimental ischemia. Afterwards, cultured neurons were placed and kept in normoxic and normoglycemic conditions to recovery. […]

Series [2] deals with Carrageenan-induced rat paw edema. The series can be described thus: Inhibition of Carrageenan-induced rat paw edema. It is filed as in vivo, Fisher 344 rats. Conditions: 0.01 mmol/kg intraperitoneally; 3.5 h after Carrageenan. On the procedure:
Inhibition of the Carrageenan-induced edema. Edema was induced in the right hind paw of Fisher 344 rats (150-200 g) by the intradermal injection of 0.1 mL 2% Carrageenan in water. Both sexes were used. Females pregnant were excluded. Each group was composed of 6 animals. The experiment was performed twice for validation. The animals, which have been bred in our laboratory, were housed under standard conditions and received a diet of commercial food pellets and water ad libitum during the maintenance, but they were entirely fasted during the experiment period. Nitrone 23 as well as of the standard drug indomethacin in 0.01 mmol/kg body weight, were diluted in water with few drops of Tween 80 and ground in a mortar before use and they were given intraperitoneally simultaneously with the Carrageenan injection. The rats were euthanized 3.5 h after Carrageenan administration. The difference between the weight of the injected and uninjected paws was calculated for each animal. The change in paw weight was compared with that in control animals (treated with water/or Tween-water) and expressed as a percent inhibition of the edema % ICPE values (Table 2). Values % ICPE are the mean from two different experiments (n=6 animals each time) with a standard error of the mean less than 10%.

Series [3] can be described thus: Interaction with the stable radical DPPH. It is filed as biochemical. Conditions: tested at 100 μM; reducing activity. How it is done:
Interaction of the nitrone with the Stable Radical 1,1-diphenyl-picrylhydrazyl (DPPH) To a solution of DPPH in absolute ethanol the appropriate volume of the compounds (0.1 mM final concentrations) dissolved in DMSO was added. The absorbance was recorded at 517 nm after 20 and 60 min at room temperature (Table 1).
3.1. Antioxidant activity of QNs using radical DPPH. […] This purple colour generally disappears in the presence of an antioxidant due to the reduction of the DPPH radical by single electron transfer (SET) from the antioxidant converted it to colourless/bleached product. […] In this assay, we measured the initial absorbance of DPPH and the absorbance once the potential antioxidant was added. The antioxidant activity was expressed as the percentage of reducing activity.
Background: DPPH is a stable violet radical that fades when it is reduced.

Series [4] in a line: Inhibition of linoleic acid peroxidation (AAPH, ILPO). To be noted: tested at 100 μM. It is filed as biochemical. How it is done:
Inhibition of Linoleic Acid Peroxidation.^32 For initiating the free radical, 2,2′-azobis(2-amidinopropane) dihydrochloride (AAPH) is used. The final solution in the UV cuvette consisted of ten microliters of the 16 mM linoleate sodium dispersion 0.93 mL of 0.05 M phosphate buffer, pH 7.4, thermostatted at 37° C. 50 μL of 40 mM AAPH solution was added as a free radical initiator at 37° C. under air and 10 μL of the tested compounds. The oxidation of linoleic acid sodium salt results a conjugated diene hydroperoxide. The reaction is monitored at 234 nm (Table 1).
3.3. Anti-lipid peroxidation activity of QNs. The water-soluble azo compound 2,2′-azobis(2-amidinopropane) dihydrochloride (AAPH) has been extensively used as a clean and controllable source of thermally produced alkyl peroxyl free radicals through spontaneous thermal decomposition. […] In the AAPH assay to determine the inhibition of the lipid peroxidation (ILPO), the highly reactive alkylperoxyl radicals are intercepted mainly by a hydrogen atom transfer from the antioxidant. As shown, QN23 presented limited value, where QNs 19, 22 and 24 presented very high values (Table 3).

The nature of series [5]: Hydroxyl radical scavenging (competition with DMSO). It is filed as biochemical. To be noted: tested at 100 μM. How it is done: Hydroxyl Radicals Scavenging Activity.^32 The hydroxyl radicals were produced by the Fe^3+/ascorbic acid system. EDTA (0.1 mM), Fe^3+ (167 μM), DMSO (33 mM) in phosphate buffer (50 mM, pH 7.4), the tested compounds (0.1 mM) and ascorbic acid (10 mM) were mixed in test tubes. The solutions were incubated at 37° C. for 30 min. The reaction was stopped by trichloroacetic acid (17% w/v) (Table 1) and the % scavenging activity of the tested compounds for hydroxyl radicals was given.
3.2. Competition of QNs with DMSO for hydroxyl radicals. Among the ROS, the hydroxyl (·OH) free radical is possibly the most toxic, as it easily reacts with biological important molecules such as DNA, lipids or carbohydrates. Polyunsaturated fatty acids are found in high concentrations in the CNS, and are particularly vulnerable to free radicals attack. Thus, we tried to test the ability of our compound to scavenge hydroxyl radicals. […] Antioxidants with lipophilic character are needed to act as radical scavengers or as chain-breaking antioxidants in biological membranes.

Series [6] in a line: ABTS radical cation decolorization assay. Conditions: tested at 100 μM. It is filed as biochemical. On the procedure: ABTS^⋅+-decolorization assay in ethanolic solution for antioxidant activity.^32,35 ABTS is dissolved in water to a 2 mM concentration. ABTS radical cation (ABTS^⋅+) is produced by reacting the ABTS stock solution with 0.17 mM potassium persulfate in phosphate buffer (pH 7.4, 20 mM) and allowing the mixture to stand in the dark at room temperature for 12-16 h before use. For steady state measurements, […] ABTS^⋅+ was used. For the present study, the […] ABTS^⋅ solution (200 μL) was diluted with ethanol (790 μL) to an absorbance of 0.70 at 734 nm, equilibrated at room temperature, mixed with 10 μL of the tested compounds (stock solutions 10 mM) and the absorbance reading was taken at room temperature 1 min after the initial mixing. Trolox was used as a standard.
3.4. ABTS^⋅+ antioxidant activity of QNs. The ABTS^⋅+ radical cation, derived from the oxidation of 2,2′-azino-bis(3-ethylbenzothiazoline-6-sulphonic acid) (ABTS) by potassium persulfate, is a green-blue stable chromophore, which can be analyzed in the course of a decolorization assay. The addition of electron-donor antioxidants leads to ABTS^⋅+ reduction. The chemistry taking place involves the direct generation of the ABTS^⋅+ with no involvement of an intermediary radical. […] Again, and as shown, QN23 presented limited activity beside with 19, although the others nitrones had no activity (Table 3).

The structures appear in SMILES notation. Values joined by “and” are separate entries in the source; they are usually repeats but may differ in a detail not shown here. Equal entries are not always repeated.

Usually viability stands for a per cent measure of how many cells are alive, often set against a control. Higher therefore signals better survival. The melting point is the temperature, or range, at which the solid turns liquid. In the case of `Cc1ccc2c(c1)cc(/C=[N+](\[O-])Cc1ccccc1)c(Cl)[n+]2[O-]` [Compound 29, (Z)—N-Benzyl-1-(2-chloro-6-methyl-1-oxidoquinolin-3-yl)methanimine oxide], the melting point was in the range of 163 to 165 °C. Besides, in series [1], the viability at 0.3 µM was found to be 8.28 ± 0.51%, the viability at 1 µM was less than 0%, the viability at 10 µM was less than 0% and the viability at 100 µM is less than 0%.

`Cc1ccc2c(c1)cc(/C=[N+](\[O-])C(C)(C)C)c(Cl)[n+]2[O-]` [Compound 30, (Z)—N-tert-Butyl-1-(2-chloro-6-methyl-1-oxidoquinolin-3-yl)methanimine oxide]: the melting point was 211 to 214 °C. In addition, in series [1], the viability at 0.3 µM was 13 ± 0.47%, the viability at 1 µM turned out to be 37.5 ± 1.94%, the viability at 10 µM was less than 0% and the viability at 100 µM was less than 0%.

On to `COc1ccc2c(c1)c(CC(=O)O)c(C)n2C(=O)c1ccc(Cl)cc1` [Indomethacin, indomethacin, reference compound], for which the ICPE % in series [2] is listed as 47 ± 1.0 %.

Take `CC(Cc1ccc(O)c(O)c1)C(C)Cc1ccc(O)c(O)c1` (stereo not shown) [NDGA, nordihydroguaiaretic acid, reference compound]: the “DPPH (%)” value in series [3] turned out to be 93%.

Regarding `Cc1c(C)c2c(c(C)c1O)CCC(C)(C(=O)O)O2` (stereo not shown) [Trolox, reference compound], the “ILPO (%) / AAPH (%)” value was 63% and 88% in series [4]; 88% in series [4] (listed as trolox). Besides, in series [5], the “*OH (%)” value is 73%. Moreover, the “ABTS*+ (%)” value in series [6] was found to be 91%.
